Measurements as given in patent publication US20200397795A1, “PROPHYLACTIC TREATMENT OF VENOUS THROMBOEMBOLISM” (JANSSEN PHARMACEUTICALS, INC., priority 2019, published 2020).

Legend:
[1] = system: symptomatic VTE and VTE-related death in high-risk, medically ill subjects; assay: MARINER (Study 2): efficacy of rivaroxaban vs placebo for 45 days post-hospital discharge; assay type: in vivo, human; set-up: Primary efficacy outcome, absolute difference vs placebo / Primary efficacy outcome, relative risk reduction vs placebo: concentration or dose not given beside the values; conditions: for Primary efficacy outcome (symptomatic VTE and VTE-related death), n/N (%): CEC adjudicated
From the text: The primary objective of Study 2 (MARINER) was to assess the efficacy and safety of rivaroxaban, compared with placebo in the prevention of symptomatic venous thromboembolism (VTE; lower extremity deep vein thrombosis [DVT] and non-fatal pulmonary embolism [PE]) and VTE-related death (death due to PE or death in which PE could not be ruled out as the cause) post-hospital discharge in high-risk, medically ill subjects.
This was a multicenter, prospective, randomized, double-blind, placebo-controlled, event-driven study conducted in multiple geographic regions (North America, South America, Eastern Europe, Western Europe, and Other locations) that evaluated rivaroxaban, compared with placebo, in the prevention of symptomatic VTE events and VTE-related deaths for a period of 45 days post-hospital discharge in high-risk, medically ill subjects. The study consisted of a screening phase, a 45-day double-blind treatment phase, and a 30-day safety follow-up period (which was also the end of study [EOS]). The total duration for a subject who completed the study (including the safety follow-up period) after randomization was 75 (±5) days.
The index hospitalization was at least 3 and no more than 10 consecutive days in duration. […] Subjects received thromboprophylaxis during the index hospitalization with low molecular weight heparin (LMWH) or unfractionated heparin (UFH).
Randomization occurred on the same day or the day after the subject left the hospital, and occurred at the hospital, clinic, or other discharge destination. Eligible subjects were to be randomly assigned (1:1) by strata (by creatinine clearance [CrCl] level [≥30-<50 mL/min versus ≥50 mL/min] and by country) to receive either rivaroxaban or placebo. Subjects with a baseline CrCl of ≥50 mL/min were to receive rivaroxaban 10 mg once daily (QD) or placebo QD. A dose adjustment to rivaroxaban 7.5 mg QD was to be implemented for subjects with a baseline CrCl of ≥30 to <50 mL/min. Study drug started at randomization (Day 1) and continued until Day 45 (inclusive). The subject was assessed 30 days later for safety follow-up.
Criteria for Evaluation: This was a clinical outcomes study. The primary efficacy outcome was the composite of all symptomatic VTE events and VTE-related death from randomization up to Day 45. Secondary efficacy outcomes were: VTE-related death; symptomatic VTE; the composite of symptomatic VTE and ACM; the composite of symptomatic VTE, MI, non-hemorrhagic stroke and CV death; and ACM.
The primary and secondary efficacy outcomes were analyzed based on the time from randomization to the first occurrence in the ITT analysis set and Up-to-Day 45 analysis phase. […] A Cox proportional hazards model, stratified by subjects with CrCl ≥30 to <50 mL/min versus subjects with CrCl ≥50 mL/min, with the treatment (as randomized) as the only covariate was used for each analysis. A 2-sided p-value was reported, and if it was less than the 2-sided alpha of 0.05, then superiority of the study drug was to be declared when the observed survival functions favored rivaroxaban. The point estimate and corresponding 95% confidence interval (CI) for the hazard ratio (HR; rivaroxaban to placebo) were provided based on the Cox proportional hazards model. To control the family-wise type I error rate at alpha of 0.05 (2-sided) in testing for efficacy outcomes, if superiority of rivaroxaban over placebo for the primary efficacy outcome was established, superiority of rivaroxaban over placebo on secondary outcomes was tested sequentially using a closed testing procedure in a hierarchical order, each at alpha of 0.05 (2-sided).

[2] = system: events prevented vs bleeding events caused; assay: MARINER benefit-risk analysis (excess number of events per 10,000 subjects); assay type: in vivo, human
Method: The benefit-risk of rivaroxaban versus placebo was evaluated based on the excess number of events between treatments for events intended to be prevented (benefits) and events that were caused (risks).
Although the primary efficacy endpoint was not statistically different between rivaroxaban and placebo, the benefit-risk analyses were conducted to further assess the totality of the data. Based on the ITT analysis set and Up-to-Day 45 analysis phase, for 10,000 subjects treated with rivaroxaban up to 45 days, on average, rivaroxaban would prevent 27 events of the composite of symptomatic VTE and VTE-related death, while causing 12 more major bleeding events than with placebo. […] Therefore, focusing instead on major thrombotic events that were fatal or caused potentially irreversible harm, on average, rivaroxaban would prevent 55 events of the composite of nonfatal PE, MI, non-hemorrhagic stroke, and non-hemorrhagic ACM, while causing 2 more events of the composite of critical site bleeding and fatal bleeding than with placebo.

[3] = Up-to-Day 45, ITT, listed as rivaroxaban
[4] = as reported by the investigator
[5] = 10 mg dose stratum, for 10,000 subjects
[6] = for 10,000 subjects treated up to 45 days

`O=C(NC[C@H]1CN(c2ccc(N3CCOCC3=O)cc2)C(=O)O1)c1ccc(Cl)s1` [Rivaroxaban, 5-chloro-N-({(5S)-2-oxo-3-[4-(3-oxo-4-morpholinyl)phenyl]-1,3,oxazolidin-5-yl}methyl)-2-thiophenecarboxamide] was tested, and the “Primary efficacy outcome, HR vs placebo” value ([1]; 7.5 mg dose stratum) was 1.00, the “Primary efficacy outcome, RRR vs placebo” value ([1]; 7.5 mg dose stratum) was 0% and the “Primary efficacy outcome, incidence” value ([1]; 7.5 mg dose stratum, Up-to-Day 45, ITT) was 1.64%. The “Primary efficacy outcome, HR vs placebo” value ([1]; 10 mg dose stratum) was 0.67, the “Primary efficacy outcome, RRR vs placebo” value ([1]; 10 mg dose stratum) was 33% and the “Primary efficacy outcome, incidence” value ([1]; 10 mg dose stratum, Up-to-Day 45, ITT) was 0.65%. For the same compound, the “Rehospitalization for symptomatic VTE within 30 days after randomization, HR vs placebo” value ([1]; ITT) was 0.50, the “Rehospitalization for symptomatic VTE within 30 days after randomization, incidence” value ([1]; ITT) was 0.15% and the “ACM, event rate” value ([1]; Up-to-Day 45, ITT) was 1.19 100 pt-45 dy. For the same compound, the “ACM, hazard ratio (95% CI) vs placebo” value ([1]; Up-to-Day 45, ITT) was 0.80 (0.58, 1.09), the “Composite of symptomatic VTE and ACM, RRR vs placebo” value ([1]; Up-to-Day 45, ITT) was 27% and the “Composite of symptomatic VTE and ACM, absolute difference vs placebo” value ([1]; Up-to-Day 45, ITT) was 0.48%. For the same compound, the “Composite of symptomatic VTE and ACM, event rate” value ([1]; Up-to-Day 45, ITT) was 1.31 100 pt-45 dy, the “Composite of symptomatic VTE and ACM, hazard ratio (95% CI) vs placebo” value ([1]; Up-to-Day 45, ITT) was 0.73 (0.54, 0.97) and the “Composite of symptomatic VTE and ACM, n/N (%)” value ([1]; Up-to-Day 45, ITT) was 78/6007 (1.30) %. The “Composite of symptomatic VTE, MI, non-hemorrhagic stroke and CV death, event rate” value ([1]; Up-to-Day 45, ITT) was 1.58 100 pt-45 dy, the “Composite of symptomatic VTE, MI, non-hemorrhagic stroke and CV death, hazard ratio (95% CI) vs placebo” value ([1]; Up-to-Day 45, ITT) was 0.78 (0.60, 1.02) and the “Composite of symptomatic VTE, MI, non-hemorrhagic stroke and CV death, n/N (%)” value ([1]; Up-to-Day 45, ITT) was 94/6007 (1.56) %. The “Death (PE cannot be ruled out), event rate” value ([1]; Up-to-Day 45, ITT) was 0.67 100 pt-45 dy, the “Death (PE cannot be ruled out), hazard ratio (95% CI) vs placebo” value ([1]; Up-to-Day 45, ITT) was 0.98 (0.63, 1.51) and the “Death (PE cannot be ruled out), n/N (%)” value ([1]; Up-to-Day 45, ITT) was 40/6007 (0.67) %. The “Death (PE), event rate” value ([1]; Up-to-Day 45, ITT) was 0.05 100 pt-45 dy, the “Death (PE), hazard ratio (95% CI) vs placebo” value ([1]; Up-to-Day 45, ITT) was 0.60 (0.14, 2.51) and the “Death (PE), n/N (%)” value ([1]; Up-to-Day 45, ITT) was 3/6007 (0.05) %. The “MI, HR vs placebo” value ([1]; Up-to-Day 45, ITT) was 1.36, the “MI, incidence” value ([1]; Up-to-Day 45, ITT) was 0.25% and the “Non-hemorrhagic stroke, HR vs placebo” value ([1]; Up-to-Day 45, ITT) was 0.63. For the same compound, the “Non-hemorrhagic stroke, incidence” value ([1]; Up-to-Day 45, ITT) was 0.32%, the “Primary efficacy outcome, absolute difference vs placebo” value ([1]; Up-to-Day 45, ITT) was 0.27% and the “Primary efficacy outcome, event rate” value ([1]; Up-to-Day 45, ITT) was 0.84 100 pt-45 dy. For the same compound, the “Primary efficacy outcome, hazard ratio (95% CI) vs placebo” value ([1]; Up-to-Day 45, ITT) was 0.76 (0.52, 1.09), the “Primary efficacy outcome, relative risk reduction vs placebo” value ([1]; Up-to-Day 45, ITT) was 24% and the “Symptomatic VTE (lower extremity DVT and non-fatal PE), n/N (%)” value ([1]; Up-to-Day 45, ITT) was 11/6007 (0.18) %. For the same compound, the “Symptomatic VTE, RRR vs placebo” value ([1]; Up-to-Day 45, ITT) was 56%, the “Symptomatic VTE, absolute difference vs placebo” value ([1]; Up-to-Day 45, ITT) was 0.24% and the “Symptomatic VTE, event rate” value ([1]; Up-to-Day 45, ITT) was 0.19 100 pt-45 dy. The “Symptomatic VTE, hazard ratio (95% CI) vs placebo” value ([1]; Up-to-Day 45, ITT) was 0.44 (0.22, 0.89), the “Symptomatic lower extremity DVT, RRR vs placebo” value ([1]; Up-to-Day 45, ITT) was 69% and the “Symptomatic lower extremity DVT, absolute difference vs placebo” value ([1]; Up-to-Day 45, ITT) was 0.15%. For the same compound, the “Symptomatic lower extremity DVT, event rate” value ([1]; Up-to-Day 45, ITT) was 0.07 100 pt-45 dy, the “Symptomatic lower extremity DVT, hazard ratio (95% CI) vs placebo” value ([1]; Up-to-Day 45, ITT) was 0.31 (0.10, 0.94) and the “Symptomatic lower extremity DVT, n/N (%)” value ([1]; Up-to-Day 45, ITT) was 4/6007 (0.07) %. For the same compound, the “Symptomatic non-fatal PE, event rate” value ([1]; Up-to-Day 45, ITT) was 0.12 100 pt-45 dy, the “Symptomatic non-fatal PE, hazard ratio (95% CI) vs placebo” value ([1]; Up-to-Day 45, ITT) was 0.47 (0.19, 1.14) and the “Symptomatic non-fatal PE, n/N (%)” value ([1]; Up-to-Day 45, ITT) was 7/6007 (0.12) %. For the same compound, the “Symptomatic upper extremity DVT, number (and incidence)” value ([1]; Up-to-Day 45, ITT) was “no subject”, the “VTE-related death, event rate” value ([1]; Up-to-Day 45, ITT) was 0.72 100 pt-45 dy and the “VTE-related death, hazard ratio (95% CI) vs placebo” value ([1]; Up-to-Day 45, ITT) was 0.93 (0.62, 1.42). For the same compound, the “VTE-related death, n/N (%)” value ([1]; Up-to-Day 45, ITT) was 43/6007 (0.72) %, the “Primary efficacy outcome (symptomatic VTE and VTE-related death), n/N (%)” value ([1]; Up-to-Day 45, ITT) was 50/6007 (0.83) % and the “Primary efficacy outcome (symptomatic VTE and VTE-related death), n/N (%)” value [1, 3] was 0.83%. For the same compound, the “ACM, hazard ratio (95% CI) vs placebo” value [1, 3] was 0.80, the “ACM, n/N (%)” value [1, 3] was 1.18% and the “Composite of symptomatic VTE and ACM, hazard ratio (95% CI) vs placebo” value [1, 3] was 0.73. For the same compound, the “Composite of symptomatic VTE and ACM, n/N (%)” value [1, 3] was 1.30%, the “Composite of symptomatic VTE, MI, non-hemorrhagic stroke and CV death, hazard ratio (95% CI) vs placebo” value [1, 3] was 0.78 and the “Composite of symptomatic VTE, MI, non-hemorrhagic stroke and CV death, n/N (%)” value [1, 3] was 1.56%. For the same compound, the “Primary efficacy outcome, hazard ratio (95% CI) vs placebo” value [1, 3] was 0.76, the “Symptomatic VTE (lower extremity DVT and non-fatal PE), n/N (%)” value [1, 3] was 0.18% and the “Symptomatic VTE, hazard ratio (95% CI) vs placebo” value [1, 3] was 0.44. The “Symptomatic lower extremity DVT, hazard ratio (95% CI) vs placebo” value [1, 3] was 0.31, the “Symptomatic lower extremity DVT, n/N (%)” value [1, 3] was 0.07% and the “Symptomatic non-fatal PE, hazard ratio (95% CI) vs placebo” value [1, 3] was 0.47. For the same compound, the “Symptomatic non-fatal PE, n/N (%)” value [1, 3] was 0.12%, the “VTE-related death, hazard ratio (95% CI) vs placebo” value [1, 3] was 0.93 and the “VTE-related death, n/N (%)” value [1, 3] was 0.72%. The “Primary efficacy outcome, HR vs placebo” value [1, 4] was 0.40, the “Primary efficacy outcome, RRR vs placebo” value [1, 4] was 60% and the “Primary efficacy outcome, absolute difference vs placebo” value [1, 4] was 0.37%. The “Primary efficacy outcome, incidence” value ([1]; as reported by the investigator (post-hoc sensitivity analysis)) was 0.25%, the “Additional critical site and fatal bleeding vs placebo” value ([2]; 10 mg dose stratum) was “no additional” and the “Events of composite of nonfatal PE, MI, non-hemorrhagic stroke, non-hemorrhagic ACM prevented vs placebo” value [2, 5] was 63 events. The “Events of composite of symptomatic VTE and VTE-related death prevented vs placebo” value [2, 5] was 33 events, the “Events of composite of nonfatal PE, MI, non-hemorrhagic stroke, non-hemorrhagic ACM prevented vs placebo” value [2, 6] was 55 events and the “More events of composite of critical site bleeding and fatal bleeding than with placebo” value [2, 6] was 2 events. For the same compound, the “Events of composite of symptomatic VTE and VTE-related death prevented vs placebo” value ([2]; for 10,000 subjects treated up to 45 days, ITT) was 27 events and the “More major bleeding events caused than with placebo” value ([2]; human, in vivo) was 12 events.
